Reference: publication PMC10463376, “Design, synthesis, in vitro anticancer, molecular docking and SAR studies of new series of pyrrolo[2,3-d]pyrimidine derivatives” (BMC Chemistry, 2023)
Entries after “also recorded” stand apart in the source; their conditions may differ.

Key:
Type in all cases: cell-based, human
DR5 [1] = experiment: RT-qPCR DR5 mRNA in A549
Protocol: (§1) All of the extractions were conducted on ice with ice-cold reagents. Total RNA from the different cell lines was isolated using Trizol (Invitrogen; Life Technologies, USA) according to the method of Sthoeger et al.. The 260:280 ratios were measured to determine RNA quality after the isolation method was completed according to the manufacturer’s instructions. A high-capacity cDNA reverse transcription kit was used to produce complementary DNA (cDNA) (Applied Biosystems, USA). […] The relative gene expression method (i.e., ΔΔCT) was used to analyze the real-time PCR data, as explained in Applied Biosystem User Bulletin No. 2. Each sample and gene were normalized using the β-actin gene.

DR5 [2] = experiment: RT-qPCR DR5 mRNA in MCF7; conditions: MCF7, vs negative control
Protocol: as §1

BAX = experiment: RT-qPCR BAX mRNA in MCF7; conditions: MCF7, vs negative control
Protocol: as §1

caspase 8 = experiment: ELISA caspase 8 in MCF7 cells; conditions: MCF7 cells treated with IC50; untreated control 3.99
Source text: Elisa assay was used to determine the concentrations of Human caspases-3, -8, Bax, and Bcl2 in PACA2- and A549-treated cells. Also, the concentrations of caspase-8, Bax, and Bcl2 in MCF7-treated cells were detected. The procedures were followed up according to the instructions described in the following kits; Invitrogen human Caspase-3 Elisa Kit, Catalog KHO1091, DRG® human Caspase-8 ELISA Kit, Catalog (EIA-4863), Human Bax ELISA Kit (ab199080) and Human Bcl-2 ELISA Kit (ab119506) respectively. Shortly, the protocol described in the above kits was as followed; at the beginning, all the reagents, samples and standards were prepared. 100 μl of samples or standard were micro pipetted to each well of micro-well strip and kept at room temperature for 2 h. After washing the micro-well strips three times with washing buffer, the prepared antibody (anti-rabbit-IgG-HRP) at a concentration of 100 μl was added to each well at room temperature for 1 h. Then, the micro-well strips were washed again three times. Afterward, the prepared tetramethyl-benzidine (TMB) solution (100 μl) was added to the micro-well strips and kept for 10 min. At last, about 50 μl of stop solution was pipetted to each well to inactivate the enzyme completely. The absorbance of all samples was measured at a wavelength of 460 nm and compared to that of the standard. Curve fitting software was used to plot a standard curve and the concentrations for the unknown samples were measured from the standard curve.

P53 = experiment: RT-qPCR P53 mRNA in MCF7; conditions: MCF7, vs negative control
Protocol: as §1

IL-8 = experiment: RT-qPCR IL-8 mRNA in MCF7; conditions: MCF7, vs negative control
Protocol: as §1

[3] = system: breast cancer cell line (MCF-7); experiment: DNA fragmentation assay, MCF7; conditions: MCF7, IC50, 24 h, vs negative control (P < 0.01); order 14a > 18b > positive > 16b > 14b
Protocol: The DNA fragmentation assay in a pancreatic cell line (Paca2), breast cancer cell lines (MCF-7) and lung cell line (A549) was performed in concordance with the premises established by Yawata with some modifications. Briefly, after 24 h of exposure of Paca2, MCF-7 and A549 cancer cell lines to the prepared compounds in different Petri dishes (60 × 15 mm, Greiner), the cells were suspended and homogenized in 1 ml of medium and then centrifuged for 10 min at 900 rpm. The genomic DNA was extracted as shown in Yawata. About 1 × 10^6 cells of each tested cancer cell line were treated with the IC50 values of the tested compounds. All the cells were collected via trypsinization and washed with Dulbecco`s Phosphate Buffered Saline. Then, the cells were treated with the lysis buffer containing 5 mM ethylenediaminetetraacetic acid (EDTA), 10 mM Tris (pH 7.4), 0.5% Triton X-100 and 150 mM NaCl for 35 min on ice. After that, the lysates were vortexed and centrifuged for 20 min at 10.000 xg. The fragmented DNA was extracted from the supernatant with an equal volume of isoamyl alcohol: chloroform: neutral phenol mixture (1:24:25). Finally, the percentage of fragmented DNA was determined by performing gel electrophoresis using 2% agarose gel containing 0.1 μg/ml ethidium bromide.
Pancreatic cancer cell line (Paca2), breast cancer cell line (MCF-7) and lung cancer cell line (A549) were used to determine the percentage of DNA fragmentation after the treatment with IC50 of the tested compounds. The selected cells were suspended in 0.5 ml of lysis buffer containing 1 mM EDTA, 10 mM Tris–HCl (pH 8) and 0.2% triton X-100. Then, the cells were centrifuged at 10.000 rpm for 20 min at 4 °C. After removing the supernatant, the pellets were re-suspended in 0.5 ml of lysis buffer. Then, 0.5 ml of 25% tri-chloroacetic acid (TCA) was added to the pellets (P) and the supernatants (S), and incubated for 24 h at 4 °C. Afterwards, the cells were centrifuged at 4 °C for 25 min at 10,000 rpm and the pellets were suspended in […] of 5% TCA, followed by incubation at 80 °C for 20 min. Finally, […] of Diphenyl Amine (DPA) solution [[…] of sulfuric acid, 150 mg DPA in 10 ml glacial acetic acid, and […] acetaldehyde (16 mg/ml)] was added to each cell sample and kept at room temperature for 24 h. The percentage of fragmented DNA was measured from the absorbance reading at 600 nm wavelength using the following formula:
% Fragmented DNA = [OD(S)/[OD(S) + OD(P)] × 100 (OD: optical density, S: supernatant, P: pellet).

MCF7 cells = experiment: Annexin V-FITC/PI apoptosis flow cytometry, MCF7; conditions: for percentage of late apoptotic cells (Q1-UR) / percentage of necrotic cells (Q1-UL) / percentage of early apoptotic cells (Q1-LR): MCF7, 24 h, IC50; for percentage of late apoptotic cells (Q1-UR): control 0.41%; for percentage of necrotic cells (Q1-UL): control 1.01%; for percentage of early apoptotic cells (Q1-LR): control 7.8%; for induction of apoptotic death: MCF7 cells
Protocol: The percentage of apoptotic cells was detected by using Annexin V-FITC kit catalog number (#K101-25). About 2X10^6 of MCF7 and Paca2 cells were washed in 500 µl of 1 × PBS. Then, the cells were centrifuged and the supernatant was discarded. The cells pellet were re-suspended in the annexin V incubation reagent. The annexin V incubation reagent contained 10 μl binding buffer (10 ×), 10 μl propidium iodide, 1 μl annexin V-FITC, and 79 μl deionized water. The cells were incubated in 100 μl annexin V incubation reagent for 15 min in the dark at room temperature. Finally, the apoptotic cell percentage was detected by flow cytometry using the FITC signal detector (usually FL-1) and PI staining by the phycoerythrin emission signal detector (usually FL-2).

DR5 [4] = experiment: RT-qPCR DR5 mRNA in Paca2; conditions: 17 vs both Dox. and negative control
Protocol: as §1

Bcl-2 = experiment: RT-qPCR Bcl-2 mRNA in Paca2; conditions: 17 vs both Dox. and negative control
Protocol: as §1

CDK4 = experiment: RT-qPCR CDK4 mRNA in Paca2; conditions: 17 vs both Dox. and negative control
Protocol: as §1

Casp-3 = experiment: RT-qPCR Casp-3 mRNA in Paca2; conditions: 17 vs both Dox. and negative control
Protocol: as §1

| Structure (SMILES) | DR5 mRNA level (DR5 [1]) | DR5 mRNA level (DR5 [2]) | BAX mRNA level (BAX) | caspase 8 level (ELISA) (caspase 8) [pg/mL] | P53 mRNA level (P53) | IL-8 mRNA level (IL-8) | DNA fragmentation rate [3] | percentage of late apoptotic cells (Q1-UR) (MCF7 cells) [%] | percentage of necrotic cells (Q1-UL) (MCF7 cells) [%] | percentage of early apoptotic cells (Q1-LR) (MCF7 cells) [%] | induction of apoptotic death (MCF7 cells) | DR5 mRNA level (DR5 [4]) | Bcl-2 mRNA level (Bcl-2) | CDK4 mRNA level (CDK4) | Casp-3 mRNA level (Casp-3) |
| --- | --- | --- | --- | --- | --- | --- | --- | --- | --- | --- | --- | --- | --- | --- | --- |
| COc1ccc(-c2c(Cl)n(-c3ccc(Cl)cc3Cl)c3ncnc(Cl)c23)cc1OC [Compound 4b, 4,6-dichloro-7-(2,4-dichlorophenyl)-5-(3,4-dimethoxyphenyl)-7H-pyrrolo[2,3-d]pyrimidine] | up-regulated | – | – | – | – | – | – | – | – | – | – | – | – | – | – |
| NNc1ncnc2c1c(-c1ccc(Br)cc1)c(Cl)n2-c1ccc(Cl)cc1Cl [Compound 14a, 5-(4-bromophenyl)-6-chloro-7-(2,4-dichlorophenyl)-4-hydrazineyl-7H-pyrrolo[2,3-d]pyrimidine] | – | increased; also recorded: up-regulated | up-regulated | 8.76 | significantly increased; also recorded: up-regulated | lowered; also recorded: down-regulated | increased significantly | – | – | – | – | – | – | – | – |
| COc1ccc(-c2c(Cl)n(-c3ccc(Cl)cc3Cl)c3ncnc(NN)c23)cc1OC [Compound 14b, 6-chloro-7-(2,4-dichlorophenyl)-5-(3,4-dimethoxyphenyl)-4-hydrazineyl-7H-pyrrolo[2,3-d]pyrimidine] | – | increased; also recorded: up-regulated | up-regulated | 18.263 | significantly increased; also recorded: up-regulated | lowered; also recorded: down-regulated | increased significantly | – | – | – | – | – | – | – | – |
| COc1ccc(-c2c(Cl)n(-c3ccc(Cl)cc3Cl)c3ncnc(N4CCN(C)CC4)c23)cc1OC [Compound 16b, 6-chloro-7-(2,4-dichlorophenyl)-5-(3,4-dimethoxyphenyl)-4-(4-methylpiperazin-1-yl)-7H-pyrrolo[2,3-d]pyrimidine] | – | increased | up-regulated | 14.72 | up-regulated; also recorded: significantly increased | lowered | increased significantly | 1.7 | 0.96 | 11.49 | induced the apoptotic death | – | – | – | – |
| CN1CCN(c2nc(C(Cl)(Cl)Cl)nc3c2c(-c2ccc(Br)cc2)c(Cl)n3-c2ccc(Cl)cc2Cl)CC1 [Compound 17, 5-(4-bromophenyl)-6-chloro-7-(2,4-dichlorophenyl)-4-(4-methylpiperazin-1-yl)-2-(trichloromethyl)-7H-pyrrolo[2,3-d]pyrimidine] | – | – | – | – | – | – | – | – | – | – | – | up-regulated | down-regulated | lowered | up-regulated |
| COc1ccc(-c2c(Cl)n(-c3ccc(Cl)cc3Cl)c3ncnc(N4CCOCC4)c23)cc1OC [Compound 18b, 4-(6-chloro-7-(2,4-dichlorophenyl)-5-(3,4-dimethoxyphenyl)-7H-pyrrolo[2,3-d]pyrimidin-4-yl)morpholine] | – | increased; also recorded: up-regulated | up-regulated | 10.29 | significantly increased; also recorded: up-regulated | lowered; also recorded: down-regulated | increased significantly | 0.89 | 0.76 | 20.63 | induced the apoptotic death | – | – | – | – |
| COc1cccc2c1C(=O)c1c(O)c3c(c(O)c1C2=O)C[C@@](O)(C(=O)CO)C[C@@H]3O[C@H]1C[C@H](N)[C@H](O)[C@H](C)O1 [Dox, Doxorubicin, reference compound] | up-regulated | increased | up-regulated | – | up-regulated | lowered | – | – | – | – | – | no significant difference | no significant difference | no significant difference | no significant difference |
